Measurements: patent publication US20070129426A1, “Therapeutic drugs for arthritis” (Shanghai Ambrosia Pharmaceutical Co., Ltd., priority 2003, published 2007)

Experiments:
[1] = system: rat toes edema caused by carrageenan; test: Rat toes edema caused by carrageenan; format: in vivo, Male Wistar rats; settings: 25 mg/kg i.p., 7 days
Description: Experimental animal: Male Wistar rats. Body weights are about 200 g.
Method of administration: intraperitoneal injection. The dose of compound 1, 2, or 3 is 12 mg/kg, respectively. The negative control used 0.5% CMC; the positive control used ibuprofen, with a dose of 25 mg/kg.
Method of experiment: The animals were divided randomly into […] based on their body weights, […]. The 4 groups were negative control group, positive control group, compound 1 group, compound 2 group, and compound 3 group. The animals were administered daily for 7 continuous days. On Day 7, the aponeurosis of right hind toes were injected with 0.1 ml of 1% carrageenan 30 minutes after the administration. The edema of the toes at different time points after induction of the inflammation was then measured.

[2] = system: acute inflammation of mice ear caused by dimethylbenzene; test: Mice ear inflammation caused by dimethylbenzene; format: in vivo, Kunming mice; settings: 25 mg/kg i.p., 4 days; 2 h after dimethylbenzene; n=10
Description: Experimental animal: Kunming mice, body weight 18-22 g.
Method of administration: intraperitoneal injection. The doses of wedelolactone were 12.5 mg/kg and 25 mg/kg, respectively; the negative control used 0.5% CMC; the positive control used ibuprofen (25 mg/kg).
Method of experiment: The animals were divided randomly into 4 groups based on their body weights, 10 mice each group. The mice were administered with the test compound for 4 continuous days. On Day 4, both sides of the right ears of the mice were daubed evenly with 50 μl dimethylbenzene 2 hours after the administration. The left ears were not treated. The mice were left for 2 hours and then sacrificed by cervical dislocation. The ear specimens were obtained by punching both ears with a 8 mm hole-puncher. The specimens were weighed and the differences between the left and the right ears were used to evaluate the effect of the compound on the inflammation.

[3] = system: adjuvant-induced arthritis of rats; test: Adjuvant-induced arthritis of rats; format: in vivo, Male Wistar rats
Description: Experimental animal: Male Wistar rats. Body weights were about 150 g.
Method of administration: intraperitoneal injection. The dose of wedelolactone was 0.25 mg/kg or 12.5 mg/kg, prepared in 0.5% CMC. The dose of methotrexate (MTX) is 0.2 mg/kg.
Method of experiment: The animals were divided randomly into 4 groups based on their body weights. They were adapted for 3 days before experiments. The left hind planta of the rats were injected subcutaneously with 0.1 ml CFA emulsion to induce inflammation. On the Day 10, after the administration of the adjuvant, the rats were injected intraperitoneally with 5 ml/kg test compound wedelolactone for 19 continuous days. On and after the day of administration of the adjuvant, the change of thickness of the four rat paws was measured daily using a vernier caliper, and the volume of the back paw were measured using a Plethysmometer. The data from day 5, 10, 15, and 19 after administration were used for statistic analyses.

[4] = 0.2 mg/kg i.p., day 5 after administration
[5] = 0.2 mg/kg i.p., day 5 after administration, adjuvant-injected paw
[6] = 0.2 mg/kg i.p., day 10 after administration
[7] = 0.2 mg/kg i.p., day 10 after administration, adjuvant-injected paw
[8] = 0.2 mg/kg i.p., day 15 after administration
[9] = 0.2 mg/kg i.p., day 15 after administration, adjuvant-injected paw
[10] = 0.2 mg/kg i.p., day 19 after administration
[11] = 0.2 mg/kg i.p., day 19 after administration, adjuvant-injected paw

CC(C)Cc1ccc(C(C)C(=O)O)cc1 (stereo not shown) [ibuprofen]
Edema index (ml) after induction of the inflammation, 1 h ([1]; 1 h): 0.31 ± 0.06 mL | Edema index (ml) after induction of the inflammation, 2 h ([1]; 2 h): 0.38 ± 0.10 mL | Edema index (ml) after induction of the inflammation, 4 h ([1]; 4 h): 0.42 ± 0.11 mL | Edema index (ml) after induction of the inflammation, 6 h ([1]; 6 h): 0.39 ± 0.06 mL | Edema index (ml) after induction of the inflammation, 24 h ([1]; 24 h): 0.37 ± 0.07 mL | Difference (mg) between left and right ear [2]: 11.4 ± 3.6 mg

CN(Cc1cnc2nc(N)nc(N)c2n1)c1ccc(C(=O)N[C@@H](CCC(=O)O)C(=O)O)cc1 [MTX, methotrexate, reference compound]
Left front paw thickness, Day 5 [3, 4]: 4.14 ± 0.14 mm | Right front paw thickness, Day 5 [3, 4]: 4.00 ± 0.10 mm | Right hind paw thickness, Day 5 [3, 4]: 4.89 ± 0.23 mm | Right hind paw volume, Day 5 [3, 4]: 1.09 ± 0.07 mL | Left hind paw thickness, Day 5 [3, 5]: 6.96 ± 1.97 mm | Left hind paw volume, Day 5 [3, 5]: 1.68 ± 0.32 mL | Left front paw thickness, Day 10 [3, 6]: 3.96 ± 0.10 mm | Right front paw thickness, Day 10 [3, 6]: 3.84 ± 0.10 mm | Right hind paw thickness, Day 10 [3, 6]: 4.87 ± 0.18 mm | Right hind paw volume, Day 10 [3, 6]: 1.00 ± 0.10 mL | Left hind paw thickness, Day 10 [3, 7]: 7.44 ± 1.42 mm | Left hind paw volume, Day 10 [3, 7]: 1.73 ± 0.23 mL | Left front paw thickness, Day 15 [3, 8]: 4.04 ± 0.10 mm | Right front paw thickness, Day 15 [3, 8]: 4.07 ± 0.13 mm | Right hind paw thickness, Day 15 [3, 8]: 5.04 ± 0.28 mm | Right hind paw volume, Day 15 [3, 8]: 1.17 ± 0.11 mL | Left hind paw thickness, Day 15 [3, 9]: 7.86 ± 1.36 mm | Left hind paw volume, Day 15 [3, 9]: 1.93 ± 0.34 mL | Left front paw thickness, Day 19 [3, 10]: 4.09 ± 0.11 mm | Right front paw thickness, Day 19 [3, 10]: 4.00 ± 0.12 mm | Right hind paw thickness, Day 19 [3, 10]: 4.90 ± 0.08 mm | Right hind paw volume, Day 19 [3, 10]: 1.19 ± 0.09 mL | Left hind paw thickness, Day 19 [3, 11]: 7.51 ± 1.40 mm | Left hind paw volume, Day 19 [3, 11]: 1.84 ± 0.26 mL | Primary inflammation of the left foot and secondary inflammation of the right foot (FIG. 2) ([3]; treated with MTX): alleviated
